The experiment deals with MCF-7 human breast cancer cells. Description: CellTiter Glo assay. The conditions noted are these: six wells and Average. Background: ATP-based viability assays read luminescence as a measure of living cells.

Values joined by “and” are separate entries in the source; they are usually repeats but may differ in a detail not shown here. Identical values can stand only once.

L-Lactate [Substrate + Buffer]: the “CellTiter Glo luminescence (number of cells)” value was 376738 RLU and 379461 RLU and 340018 RLU and 370831 RLU and 395464 RLU and 380015 RLU (MCF-7, Day 0, Substrate + Buffer); 136132 RLU and 135475 RLU and 224766 RLU and 187489 RLU and 171303 RLU and 142850 RLU (MCF-7, Day 1, Substrate + Buffer); 180844 RLU and 214489 RLU and 155311 RLU and 175921 RLU and 183640 RLU and 185254 RLU (MCF-7, Day 5, Substrate + Buffer); 147731 RLU and 163281 RLU and 149128 RLU and 150112 RLU and 139841 RLU and 176875 RLU (MCF-7, Day 7, Substrate + Buffer).

The record behind these values is US11207386B2, “Methods for inhibiting tumor growth” (priority 2015, dated 2021).
